The source made the active and inactive calls.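 The calls were made as follows: active = maximal inhibition of USP17 at or above 30% in the confirmation dose-response, a value not among the printed readouts; inactive = the rest.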 Bounds are passed on as bounds.

By IC50 is commonly meant the concentration needed to halve the response being measured.

Chain of Ubiquitin carboxyl-terminal hydrolase 17-like protein 5 (Homo sapiens) (A8MUK1 whole entry, looked up): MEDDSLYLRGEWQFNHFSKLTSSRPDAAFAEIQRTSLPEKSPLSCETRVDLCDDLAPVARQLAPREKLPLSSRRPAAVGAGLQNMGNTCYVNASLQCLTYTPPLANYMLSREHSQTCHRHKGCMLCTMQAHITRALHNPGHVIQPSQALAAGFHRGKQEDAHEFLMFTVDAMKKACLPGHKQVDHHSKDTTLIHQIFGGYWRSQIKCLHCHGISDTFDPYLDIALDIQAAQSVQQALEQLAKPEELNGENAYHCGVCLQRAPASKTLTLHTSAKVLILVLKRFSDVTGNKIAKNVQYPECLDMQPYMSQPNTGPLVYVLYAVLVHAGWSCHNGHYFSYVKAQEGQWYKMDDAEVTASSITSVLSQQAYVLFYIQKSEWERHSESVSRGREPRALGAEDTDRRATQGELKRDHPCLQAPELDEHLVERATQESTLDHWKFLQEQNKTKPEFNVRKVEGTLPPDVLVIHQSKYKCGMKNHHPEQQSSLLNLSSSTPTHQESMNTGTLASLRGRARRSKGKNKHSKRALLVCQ

This assay addresses Ubiquitin carboxyl-terminal hydrolase 17-like protein 5 (Homo sapiens) (UniProt A8MUK1). Nature of the assay: ubiquitin-specific protease 17 DUB inhibitors, concentration-effect assay, cell-free, verification of initial screening actives (AID 1645864). The note with it: purified USP17, ubiquitin-rhodamine cleavage fluorescence, 3 h.
As to `O=c1c2ccccc2ncn1C1CCN(S(=O)(=O)c2ccccc2F)CC1`, the IC50 is 28.9 µM. Consider `O=C(CSc1nncc2ccccc12)Nc1ccc2c(c1)OCO2`, for which the IC50 was > 50 µM (inactive). Turning to `Cc1ccc2c(c1)c(=O)c(C(=O)c1ccccc1)cn2CC(=O)Nc1ccc2c(c1)OCCO2`, the half-maximal inhibitory concentration (IC50) was 3.16 µM. With `COc1ccc(CNC(=O)C(C)n2nc(-c3ccco3)c(-c3cc(C)no3)cc2=O)cc1` (configuration not stated), the IC50 was 25.1 µM. Take `O=C(c1cn(-c2cccc(F)c2)nn1)N1CCc2ccccc2C1`: the IC50 is 18.5 µM. In the case of `Cn1c(=O)[nH]c2nncnc2c1=O` it was 7.23 µM. Consider `O=C(c1cccnc1)N1CCC2(CC1)CC1(CO2)Nc2ccccc2-n2cccc21` (configuration not stated), for which the IC50 is 21.4 µM.

`CN1C(=O)[C@]23CC4=CC=C[C@H](O)[C@H]4N2C(=O)[C@@]1(CO)SS3`: the IC50 was > 50 µM (inactive). Under `CS(=O)(=O)N1CCc2cc(C(=O)Nc3ccc(Cc4ccncc4)cc3)ccc21` stands > 50 µM (inactive).

As for `Cc1nc(-c2cccc(NC(=O)C3CCN(c4ccccc4)C3=O)c2)no1` (configuration not stated), the IC50 was 37.2 µM.

For `COc1ccc2ncc3c(-c4ccc(C)cc4)nn(-c4ccc(F)cc4)c3c2c1`, the IC50 is 3.57 µM. As to `O=C(/C=C/C=C/C=C/C1CCCCC1)NC1=C[C@@](O)(/C=C/C=C/C=C/C(=O)NC2=C(O)CCC2=O)[C@@H]2O[C@@H]2C1=O`, the IC50 is 3.32 µM. Under `O=C(COc1ccc(Cl)cc1)N1CCc2cc3ccccc3nc21` stands 2.41 µM. Consider `COc1ccccc1S(=O)(=O)N1CC[C@@H]2CN(C)[C@@H]2C1`, for which the IC50 is 32.2 µM. In the case of `O=C(CCCCn1c(=O)[nH]c2ccccc2c1=O)Nc1cccc(Cl)c1`, the IC50 is 19.4 µM. Under `Cc1ccc(C(=O)Nc2cc3c4c(c2)CC(=O)N4CCC3)cc1` stands > 50 µM (inactive); under `O=C(COC(=O)c1cc(Cl)c2c(c1)OCO2)Nc1ccc2[nH]c(=O)[nH]c2c1`, 4.92 µM; under `COc1cc(OC)cc(C(=O)Nc2cnc(-c3ccccc3)nc2)c1`, > 50 µM (inactive).

In the case of `COc1ccc(C(C(=O)NC2CCCCC2)N(C(=O)CCCC(=O)Nc2ccccn2)c2ccccc2C)cc1` (configuration not stated), the IC50 was 22.5 µM.

For the compound `CC(=O)CN1CC2(CCN(Cc3ccc(F)cc3)CC2)COc2ccccc2S1(=O)=O`, the IC50 was > 50 µM (inactive). For the compound `O=C1C[C@@H](O)[C@H](O)[C@@]23O[C@@]12C1(Oc2cccc4cccc(c24)O1)[C@@H]1O[C@@H]1[C@@H]3O`, the IC50 is 22 µM. For the compound `CCOC(=O)Nc1ccc(N2CCn3c(nc4ccccc43)C2)cc1OC`, the IC50 is > 50 µM (inactive).

As for `O=C(COc1cccc2ccc(N3CCC(Cc4ccccc4)CC3)nc12)NCc1ccc(F)cc1`, the IC50 is 21.1 µM. For the compound `COc1ccc(NC(=O)CN2C(=O)c3ccccc3Sc3ccc(C(=O)N4CCCC4)cc32)cc1OC`, the IC50 is 26.1 µM. For `COc1ccc(C2C(C(=O)Nc3ccccc3OC)=C(C)Nc3nnnn32)cc1Br` (configuration not stated), the IC50 is 36.3 µM. For the compound `O=C(CCCn1c(=O)[nH]c2cc(Cl)ccc2c1=O)N1CCc2ccccc2C1`, the IC50 was 21.5 µM. In the case of `Cc1ccccc1OCCSc1nc2ccccc2n1CC(=O)NC1CC1` it was 22.8 µM.

With `COC(=O)c1ccc(NC(=O)CSc2nnc(-c3ccc(O)cc3)n2Cc2ccco2)cc1`, the IC50 is 24.9 µM. For `Cc1ccc2c(=O)c(C(=O)Nc3ccccc3)cn(CC(=O)NC3CCCCC3)c2n1`, the IC50 is under 0.05 µM. As to `COc1cccc(-n2nnc(C(=O)Nc3ccc(C)c(C)c3)c2C)c1`, the IC50 is > 50 µM (inactive).

Consider `O=C(c1cscn1)N1CCC2(CC1)CC1(CO2)Nc2ccccc2-n2cccc21` (configuration not stated), for which the IC50 was > 50 µM (inactive). In the case of `C[C@H](NC(=O)Cc1ccccc1F)c1nc2cc(-c3ccccc3F)ncn2n1` it was > 50 µM (inactive); in that of `COC(=O)c1cc2c(ccn2C)n1CC(=O)NC1CCCC1`, > 50 µM (inactive); in that of `O=C(COc1ccc(Cl)cc1Cl)Nc1ccc2[nH]c(=O)[nH]c2c1`, 7.41 µM.

`Nc1ccc(NC(=O)c2cc3c(s2)CCC3)cc1[N+](=O)[O-]`: the IC50 is 24.6 µM. In the case of `O=C(Nc1ccccc1)c1cn(-c2cc(N3CCCC3)ncn2)cn1`, the IC50 was > 50 µM (inactive).

In the case of `Cc1nc2nc(SCc3nc4ccccc4n3C)[nH]c2cc1Br`, the IC50 was 3.51 µM.

Turning to `O=C(Nc1oc2ccccc2c(=O)c1-c1ccc2c(c1)OCO2)C1CCCCC1`, the IC50 was 30.1 µM. As to `O=C(NCCN1CCCC1)C1CCN(c2cnc(N3CCCCC3)nc2)CC1`, the IC50 was > 50 µM (inactive). Turning to `COc1ccc2nc(-c3ccc(NC(=O)c4cccc(OC)c4OC)cc3)cn2n1`, the IC50 is 2.13 µM. For `C=C(NC(=O)C(=C)NC(=O)c1csc(-c2ccc3c(n2)-c2csc(n2)-c2csc(n2)C(C(C)C2CO2)NC(=O)C(Cc2ccc(O)cc2)NC(=O)c2csc(n2)C(C(O)c2ccccc2)NC(=O)c2nc(sc2C)C(CC(N)=O)NC(=O)c2csc-3n2)n1)C(=O)O` (configuration not stated), the IC50 was 26.7 µM.

Consider `Cn1c(=O)c(C(=O)CN2CCN(c3ccc(O)cc3)CC2)c(N)n(Cc2ccccc2)c1=O`, for which the IC50 is 39.5 µM. For `CN(Cc1ccccc1)S(=O)(=O)c1ccc2[nH]cc(C(=O)NCc3cccs3)c(=O)c2c1`, the IC50 is 0.749 µM.

As to `CC1CCN(C(=O)c2cn(-c3cc(N4CCC(C)CC4)ncn3)cn2)CC1`, the IC50 was > 50 µM (inactive). In the case of `CC1CCc2c(sc3ncnc(NC4CCN(CC(N)=O)CC4)c23)C1` (configuration not stated), the IC50 is > 50 µM (inactive).

Turning to `COC1=CC(=O)c2c(O)c(C)c(CC(C)=O)c(O)c2C1=O`, the IC50 was 2.87 µM. Under `COc1cccc(N2CCN(c3ccc4nnc(CCC(=O)N5CCc6ccccc6C5)n4n3)CC2)c1` stands 28.2 µM. Consider `Cc1cc2nc(/C=C/c3ccccc3)n(Cc3cccc(F)c3)c2cc1C`, for which the IC50 is > 50 µM (inactive). With `Cc1noc(C)c1COc1cccc(C(=O)Nc2cc(Cl)ccc2-n2cncn2)c1`, the IC50 was > 50 µM (inactive). `CCc1nc(-c2cc(C(=O)N3CCOCC3)c3ccccn23)cs1`: the IC50 is > 50 µM (inactive). As to `COc1ccc(C(=O)Nc2n[nH]c(C)c2-c2cccc(C)c2)c(OC)c1`, the IC50 is 2.74 µM. Under `CC1CCN(S(=O)(=O)c2ccc3[nH]cc(C(=O)NCc4ccco4)c(=O)c3c2)CC1` stands > 50 µM (inactive); under `Cc1cc(C)nc(-n2nc(C)c3c2NC(=O)CSC3c2ccccc2F)n1` (configuration not stated), 43 µM.

`COc1cccc2c1NC(=O)C21CCN(C(=O)Nc2cccc(C)c2)CC1`: the 50% inhibitory concentration (IC50) was 20.1 µM. `COc1ncccc1CN1CCn2c(Cn3cncn3)cnc2C1C` (configuration not stated): the IC50 was > 50 µM (inactive). For the compound `Cc1ccc2cc3c(nc2n1)CCN(Cc1ccc(F)cc1)C3`, the IC50 was > 50 µM (inactive).

For `O=C(COc1nsnc1N1CCOCC1)Nc1ccccc1F`, the IC50 was > 50 µM (inactive). Under `O=C(Cn1c(=O)n(-c2ccccc2)c(=O)c2ccc(C(=O)NCc3ccc4c(c3)OCO4)cc21)NCCC1=CCCCC1` stands 16.9 µM; under `Cc1ccc(-c2nc(NC(=O)COc3ccc(Cl)cc3)no2)cc1`, 1.33 µM; under `O=C(Cn1c(=O)n(Cc2ccccc2)c(=O)c2ncccc21)NCc1ccccc1Cl`, 37.9 µM. `Cc1ccc(-c2cnc(C3CC3)o2)cc1S(=O)(=O)Nc1ccc(F)c(Cl)c1`: the IC50 is 38.1 µM.

Regarding `COc1ccc(NC(=O)c2ccnc(Nc3ccc(OC)cc3)c2)cc1`, the IC50 was 42.4 µM.

The values above are taken from PubChem BioAssay AID1645864 (Buhrlage Lab, Dana-Farber Cancer Institute and Novartis …, 2021).
